Structures are written as SMILES. pKd: −log10 of the molar value. Where a SMILES comes first, the peptide text is derived from it.

The target in the test is T1, sSema 4D (Homo sapiens, UniProt Q92854).
T1 construct: purchased Novoprotein Ltd. (Suzhou, China)
T1 sequence (Q92854 22-734 limits assumed): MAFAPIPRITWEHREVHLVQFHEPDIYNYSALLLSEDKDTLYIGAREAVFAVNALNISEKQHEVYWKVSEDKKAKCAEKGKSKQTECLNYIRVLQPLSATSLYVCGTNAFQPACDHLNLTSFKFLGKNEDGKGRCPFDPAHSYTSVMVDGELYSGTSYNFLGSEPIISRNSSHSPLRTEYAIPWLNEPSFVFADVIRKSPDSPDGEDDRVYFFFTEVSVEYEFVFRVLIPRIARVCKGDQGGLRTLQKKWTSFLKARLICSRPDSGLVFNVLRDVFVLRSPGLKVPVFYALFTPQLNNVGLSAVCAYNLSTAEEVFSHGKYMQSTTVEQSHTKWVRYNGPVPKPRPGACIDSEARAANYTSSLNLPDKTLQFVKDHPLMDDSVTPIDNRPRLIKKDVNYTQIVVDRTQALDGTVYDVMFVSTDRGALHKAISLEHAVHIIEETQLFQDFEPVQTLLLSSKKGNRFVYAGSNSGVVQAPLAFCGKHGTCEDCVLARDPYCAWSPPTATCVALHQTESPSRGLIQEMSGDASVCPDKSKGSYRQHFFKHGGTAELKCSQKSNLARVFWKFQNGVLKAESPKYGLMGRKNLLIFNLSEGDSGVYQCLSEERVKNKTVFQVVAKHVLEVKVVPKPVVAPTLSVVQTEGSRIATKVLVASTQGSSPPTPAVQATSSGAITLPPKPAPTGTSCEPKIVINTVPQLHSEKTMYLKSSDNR
The test is described as follows: SPRi binding affinity of TPs to sSema 4D. As to conditions: SPRi (surface plasmon resonance imaging). As for the experimental part:
To carry out the library screening, we first labeled the sSema4D with fluorescein isothiocyanate isomer (FITC), as shown in Figure 2E. Next, ≈10^6 beads library was incubated with FITC‐labeled sSema4D for 6 hours. The beads were thoroughly washed with DMF, water and methanol. Finally, under the fluorescence microscope, the beads with […] to sSema4D or FITC‐labeled sSema4D through noncovalent bonding were identified in Figure 2F. We selected twelve strongest putative fluorescent beads by physical separation. Subsequently, the corresponding peptides were cleaved off with BrCN from beads and analyzed by automatic Edman sequencing. The structures and sequence of transformable peptides (TPs) were determined and summarized (Figure S2, Supporting Information). TP‐1 to TP‐12 were resynthesized into solid phase and purified by high performance liquid chromatography (HPLC). The binding affinity of TPs toward sSema 4D was measured by enzyme‐linked immunosorbent assay (ELISA) and surface plasmon resonance imaging (SPRi). […] TP‐2 and TP‐7 were selected as the candidate TP binding sSema 4D to construct SSP. Subsequent SSP monomers (SSP‐1, sequence: C16‐FFVLK‐KQKRPRH; SSP‐2 C16‐FFVLK‐KNKAAKG) were synthesized and characterized by HPLC and Matrix‐assisted laser desorption/ionization time‐of‐flight mass spectrometry (MALDI‐TOF‐MS).
In general terms: SPR reads the build-up and loss of mass on a sensor chip optically.
As usually defined, the pKd is the Kd on a negative log10 scale, so that one unit is a factor of ten. Consider `C[C@H](NC(=O)[C@H](C)NC(=O)[C@H](CCCCN)NC(=O)[C@H](CC(N)=O)NC(=O)[C@@H](N)CCCCN)C(=O)N[C@@H](CCCCN)C(=O)NCC(=O)O` [TP-2] (H-KNKAAKG-OH), for which the pKd was 7.38. For `N=C(N)NCCC[C@H](NC(=O)[C@@H]1CCCN1C(=O)[C@H](CCCNC(=N)N)NC(=O)[C@H](CCCCN)NC(=O)[C@H](CCC(N)=O)NC(=O)[C@@H](N)CCCCN)C(=O)N[C@@H](Cc1c[nH]cn1)C(=O)O` [TP-7] (H-KQKRPRH-OH), the pKd is 7.84.

`CC(C)[C@H](NC(=O)[C@H](CCCNC(=N)N)NC(=O)[C@H](C)NC(=O)[C@@H]1CCCN1C(=O)[C@H](C)NC(=O)[C@@H](N)CCCCN)C(=O)NCC(=O)O` [TP-10] (H-KAPARVG-OH) had a pKd of 7.19.
